{"source": "patent US12465630B2", "about": "“Small peptide compositions and uses thereof” (University of Pittsburgh—Of the Commonwealth System of …, priority 2018, dated 2025)", "key": {"[1]": {"tested_on": "cardiac fibroblasts", "test": "Motility (scratch) assay, cardiac fibroblasts", "assay_type": "cell-based, mouse", "protocol": "(§1) Primary cardiac fibroblasts and cardiomyocytes were isolated from both wild-type and CXCR3−/− neonatal mouse pups. After washing in PBS, hearts were stirred for 5 minutes in 0.5% trypsin at 37° C. to dissociate cells into solution. The suspended cells were then transferred to DMEM containing 20% fetal bovine serum (FBS) on ice to inactivate trypsin activity, and dissociation was repeated twice more with fresh trypsin solution. Cells were then washed and plated into 6-well plates at 1.25×10^6 cells/well, suspended in cardiac cell media (DMEM containing 7.5% dialyzed FBS and 1% antibiotic/antimitotic solution). After three hours, adhered fibroblasts were separated from the unattached cardiomyocytes through resuspension of the cells, and cardiomyocytes were plated separately at a density of 5×10^5 cells/ml.\n(§2) To determine the effect of IP-10p on TGFβ1-induced cell migration, motility assays were performed on cardiac fibroblasts, cardiomyocytes, and co-cultures (2:1 ratio of cardiomyocytes to fibroblasts). Cells were plated at 2.5×10^5 cells/well in a 12-well uncoated plate in depleted media (DMEM containing 0.5% FBS) 24 hours before beginning the experiment. A pipette tip was used to create a scratch in the monolayer and the plate was washed twice with PBS to remove scraped cells. Cells were then treated with TGFβ1 (R&D Systems, Minneapolis, MN) alone (10 ng/mL) to stimulate fibrosis, CXCL10 alone (10 μM), IP-10p alone (10 μM), TGFβ1+CXCL10, TGFβ1+IP-10p, or left untreated. Images were taken immediately after scratching and 24 hours later, and Adobe Photoshop was used to quantify wound motility as distance between wound edges relative to the initial scratch width."}, "[2]": {"tested_on": "co-cultures of cardiomyocytes and cardiac fibroblasts", "test": "Fibrotic extracellular matrix (ECM) secretion, co-cultures", "assay_type": "cell-based, mouse", "settings": "agent alone vs unstimulated cultures, 48 h", "protocol": "as §1\nCardiac fibrosis is marked by overproduction of ECM proteins following injury. To observe the effect of IP-10p on secretion of these molecules, co-cultures of cardiomyocytes and cardiac fibroblasts were used to account for […] signaling taking place between the two dominant cell types in the heart. Fibroblasts and myocytes were plated at a 2:1 ratio using the same culture conditions and treatment groups described above for fibroblast activation. Following a 48-hour incubation with their respective treatments, cells were fixed, permeabilized and stained. Antibodies for collagen α1 type 1 (1:250, Santa Cruz Biotechnology SC8784, Dallas, TX), fibronectin (1:250, Abcam ab2413), and tenascin C (1:200, Abcam ab6346), followed by their appropriate secondary antibodies (Abcam ab150132, ab150077, and 150153, respectively), were used to determine fibrotic ECM secretion from the co-cultures. Expression of these molecules is expressed at CTCF and was quantified using MetaMorph® (Molecular Devices, Sunnyvale, CA)."}, "[3]": {"tested_on": "primary lung fibroblasts", "test": "qPCR of pro-fibrotic mRNAs in primary lung fibroblasts", "assay_type": "cell-based, human", "settings": "TGF-β 10 ng/mL, 24 h", "protocol": "The next day, the medium was changed to quiescent medium and the cells were incubated in this medium for 24 hours. The following day, cells were either left untreated, treated with 10 ng/mL or 100 ng/mL of IP-10-1 (SEQ ID NO: 2), IP-10-2 (SEQ ID NO: 3) or IP-10-3 (SEQ ID NO: 4) peptide, treated with 10 ng/mL TGF-β, or treated with peptide and TGF-β for 24 hours. Total RNA was extracted using the Qiagen miRNeasy kit (Qiagen) and treated with DNase1, according to the manufacturer's instructions. RNA was then quantified and converted to cDNA using the Clontech RNA to cDNA EcoDry Double Primed Premix (Takara). qPCR was performed using PowerUp Sybr Green (Invitrogen) on an Applied Biosystems Quant Studio 3 instrument. Primers were from IDT and were designed using IDT Primer Quest and NCBI Primer Blast tools. The delta-delta Ct method was used to determine relative expression. GAPDH was used as a housekeeping gene."}, "[4]": {"tested_on": "cardiac fibroblasts", "test": "Fibroblast activation assay (αSMA), cardiac fibroblasts", "assay_type": "cell-based, mouse", "settings": "TGFβ1 10 ng/mL vs untreated control", "protocol": "as §1\nFibroblast activation to myofibroblasts is marked by αSMA expression within the cytoskeleton and serves as a marker to induce fibrosis. Cardiac fibroblasts were plated at 2,000 cells/well in an 8-well chamber slide and allowed to adhere overnight. After 24 hours, cells were washed and treated with: TGFβ1 alone (10 ng/ml), CXCL10 alone (10 μM), IP-10p alone (10 μM), TGFβ1+CXCL10, TGFβ1+IP-10p, or left untreated. After 24 hours, cells were fixed in ice cold methanol for 10 minutes and stained for αSMA (1:200, Abcam ab5694, Cambridge, UK) at 4° C. overnight, followed by a goat-anti-rabbit Alexa Fluor 594-conjugated secondary antibody (Abcam ab150080). After counterstaining with DAPI, cells were imaged, and fibroblast activation was measured using corrected total cell fluorescence (CTCF). These measurements were also performed in co-cultures of cardiomyocytes and cardiac fibroblasts (2:1 ratio)"}, "[5]": {"tested_on": "primary lung fibroblasts", "test": "Scratch assay, TGF-β-induced fibroblast migration", "assay_type": "cell-based, human", "settings": "TGF-β 10 ng/mL, 24 hours", "protocol": "Next, studies were performed to evaluate the effect of IP-10 related peptides on migration of lung fibroblasts in response to TGF-β. Primary lung fibroblasts from healthy patients were plated in 24-well plates in complete medium and incubated overnight. The next day, the medium was changed to quiescent medium and cells were incubated in this medium for 24 hours. The following day, a plus-shaped scratch was made across the cells using a 1000 μL pipette tip. An image was taken at a location that could be identified later. After imaging, cells were either left untreated, treated with 100 ng/mL peptide alone, treated with 10 ng/mL TGF-β, or treated with peptide and TGF-β and incubated for 24 hours. At the end of the incubation time, the cells were imaged in the same location as in the original image to visualize closure of the scratch. The denuded area was calculated using ImageJ software and the percent wound closure was calculated for each treatment group."}, "[6]": {"tested_on": "primary lung fibroblasts", "settings": "for number of viable cells (Calcein-AM uptake): 1 to 1000 ng/mL, 24 hours", "protocol": "The effect of IP-10-related peptides on viability of lung fibroblasts was evaluated. Primary lung fibroblasts from healthy patients (SC31 and SC45) were either left untreated or treated with various concentrations of peptides (1 to 1000 ng/mL) for 24 hours. Treatment for 30 minutes with 70% ethanol in water was used as a positive control for dead cells. The Molecular Probes LIVE/DEAD Viability/Cytotoxicity Kit for mammalian cells (Invitrogen) was used to stain live cells. Following the manufacturer's protocol, at the end of treatment, cells in 96-well plates were washed with PBS, and then incubated in 2 μM Calcein-AM solution for 45 minutes at room temperature. Following incubation, the cells were imaged under a fluorescence microscope using the GFP channel. For quantification, ImageJ was used to count the number of live cells per field."}, "[7]": {"tested_on": "cardiac fibroblasts", "test": "P38 MAPK-dependent extracellular matrix production in cardiac fibroblasts", "assay_type": "cell-based, mouse", "source_text": "(§3) CM and CF were isolated from wild type and CXCR3-null FVB neonatal mice. Following isolation, CM, CF, or CM/CF in both direct and indirect co-cultures were challenged with CM and CF activating growth factor transforming growth factor […]. Antagonist peptide treatments, CRF-5-3 and CRF-5-5, were given alone or in combination with CXCL10. To determine whether CRF-5-3 and CRF-5-5 block CXCL10 binding to its receptor, the ability of biotin-tagged CXCL10 and/or FITC-tagged CRF-5-5 to compete for binding to CM and CF was analyzed using flow cytometry. In vitro cellular function assays were assessed for migration, apoptosis, and extracellular matrix (ECM) secretion. Real time quantitative polymerase chain reaction was employed in order to determine modified relative gene expression of both CM and FB, following treatment."}, "[8]": {"tested_on": "cardiac fibroblasts (CF) and cardiomyocytes (CM)", "test": "In vitro cellular function assays on CM and CF (P38 signaling, motility, ECM)", "assay_type": "cell-based, mouse", "source_text": "as §3"}, "[9]": {"tested_on": "cardiac fibroblasts (CF)", "test": "Real time quantitative PCR relative gene expression, cardiac fibroblasts", "assay_type": "cell-based, mouse", "settings": "peptide with CXCL10", "source_text": "as §3"}, "[10]": {"tested_on": "cardiomyocytes (CM)", "test": "Real time quantitative PCR relative gene expression, cardiomyocytes", "assay_type": "cell-based, mouse", "settings": "peptide with CXCL10", "source_text": "as §3"}, "[11]": {"tested_on": "cardiomyocytes", "test": "Motility (scratch) assay, cardiomyocytes", "assay_type": "cell-based, mouse", "settings": "TGFβ1 10 ng/mL + agent 10 μM, 24 h; FIG. 1A", "protocol": "as §1, §2"}, "[12]": {"tested_on": "CM/CF co-cultures", "test": "Histochemical and fluorescence analyses of ECM in CM/CF co-cultures", "assay_type": "cell-based, mouse", "source_text": "as §3"}}, "note": "“Also recorded” adds a separate entry of the source. Ends that are not written are not given here."}
{"molecule": "transforming growth factor beta 1 [TGFβ1]", "values": [{"measurement": "increase of cardiac fibroblast motility relative to untreated cells", "setting": "[1]; TGFβ1 10 ng/mL alone, 24 h", "value": "over 3 fold"}, {"measurement": "collagen secretion, agent alone", "setting": "[2]", "value": "significant upregulation"}, {"measurement": "fibronectin secretion, agent alone", "setting": "[2]", "value": "significant upregulation"}, {"measurement": "expression of pro-fibrotic mRNAs, TGF-β alone", "setting": "[3]", "value": "induced expression; also recorded: caused an induction"}, {"measurement": "αSMA expression, TGFβ1 alone", "setting": "[4]", "value": "drastically increased αSMA expression"}, {"measurement": "fibroblast migration (wound closure), TGF-β alone", "setting": "[5]", "value": "significantly increased fibroblast migration; also recorded: significantly increased rate of wound closure"}]}
{"molecule": "PESKVIKNLLKVASKERSKRSP [IP-10-1]", "values": [{"measurement": "number of viable cells (Calcein-AM uptake)", "setting": "[6]", "value": "no impact"}]}
{"molecule": "FRWLWRGGRWLWRF [CRF-5-5]", "values": [{"measurement": "CXCL10 inhibition of TGF-β-induced P38 MAPK-dependent extracellular matrix production", "setting": "[7]", "value": "altered"}, {"measurement": "CXCL10-suppressed growth factor-induced ECM production", "setting": "[8]", "value": "promote the disinhibition"}, {"measurement": "CXCL10-suppressed growth factor-induced intracellular P38 signaling", "setting": "[8]", "value": "promote the disinhibition"}, {"measurement": "CXCL10-suppressed growth factor-induced motility", "setting": "[8]", "value": "promote the disinhibition"}, {"measurement": "CXCL10 inhibition of TGF-β-induced matrix production", "setting": "[8]", "value": "interfered"}, {"measurement": "CXCL10-induced gene expression on FB", "setting": "[9]", "value": "altered"}, {"measurement": "CXCL10-induced gene expression on CM", "setting": "[10]", "value": "altered"}]}
{"molecule": "FAKAIKNFAKAVAKFA [IP-10-3, FAKAIKNFAKAVAKFA]", "values": [{"measurement": "number of viable cells (Calcein-AM uptake)", "setting": "[6]", "value": "no impact"}]}
{"molecule": "C-X-C chemokine ligand 10 [CXCL10]", "values": [{"measurement": "motility of cardiac fibroblasts, agent alone", "setting": "[1]; 10 μM alone, 24 h, compared to control", "value": "not altered"}, {"measurement": "migration following TGF-β induction in cardiac fibroblasts", "setting": "[1]; FIG. 1B", "value": "inhibit migration"}, {"measurement": "reduction of motility of TGFβ1-treated fibroblasts", "setting": "[1]; TGFβ1 10 ng/mL + agent 10 μM, 24 h", "value": 30, "unit": "%"}, {"measurement": "cardiomyocyte motility in the presence of TGFβ1", "setting": "[11]", "value": "completely inhibited; also recorded: inhibit migration"}]}
{"molecule": "CCO", "note": "[ethanol, reference compound]", "values": [{"measurement": "Calcein-AM positive cells, positive control for dead cells", "setting": "[6]; 70% ethanol in water, 30 minutes", "value": "elimination of the detected Calcein-AM positive cells"}]}
{"molecule": "FRFLFRGGRFLFRF [CRF-5-3]", "values": [{"measurement": "CXCL10 inhibition of TGF-β-induced P38 MAPK-dependent extracellular matrix production", "setting": "[7]", "value": "altered"}, {"measurement": "ECM alterations following TGF-β and/or CXCL10 treatment", "setting": "[12]", "value": "CRF-5-3-mediated alterations"}, {"measurement": "CXCL10-suppressed growth factor-induced ECM production", "setting": "[8]", "value": "promote the disinhibition"}, {"measurement": "CXCL10-suppressed growth factor-induced intracellular P38 signaling", "setting": "[8]", "value": "promote the disinhibition"}, {"measurement": "CXCL10-suppressed growth factor-induced motility", "setting": "[8]", "value": "promote the disinhibition"}, {"measurement": "CXCL10-induced gene expression on FB", "setting": "[9]", "value": "altered"}, {"measurement": "CXCL10-induced gene expression on CM", "setting": "[10]", "value": "altered"}]}
{"molecule": "PESRVIKNLLRVVSKEKSRRSP [IP-10-2]", "values": [{"measurement": "number of viable cells (Calcein-AM uptake)", "setting": "[6]", "value": "no impact"}]}
